Assay results from US10751356B2, “Compositions and methods for transient up-regulation of Myc in B-cell lymphomas for enhancing P53 independent apoptotic responses to chemotherapy” (THE CHILDREN'S HOSPITAL OF PHILADELPHIA, priority 2013, dated 2020).

Legend:
Myc/p53ER™ cells = experiment: Apoptosis of Myc/p53ER B-lymphoma cells (FIGS. 1-3); format: cell-based, mice
From the text: Because many Myc-driven tumors are defective for p53 activity, we sought to determine whether transient up-regulation of Myc also increases cell death in response to chemotherapeutic drugs in a p53-deficient background. For this purpose, we used B-lymphoma cells isolated from bone marrows of p53ER™ knock-in mice and subsequently transduced with a Myc-expressing retrovirus (2,3). This inducible system allowed us to distinguish between p53-dependent (cells treated with tamoxifen) and independent (no tamoxifen added) cell death. Additionally, instead of modulating Myc levels through miRNA inhibitors, which currently have limited clinical utility, we increased Myc stability with a small molecule inhibitor of GSK3β, which promotes proteosomal degradation of Myc. […] To validate this effect in a more relevant setting, we inhibited GSK3β in various Burkitt's lymphoma cell lines and achieved consistent up-regulation of Myc.

Myc = Myc stabilization in B lymphoma cell lines with WT or mutant Myc-Thr58 treated with CHIR-99021 (FIG. 7); format: cell-based; conditions: B lymphoma cell lines with WT-Myc-Thr58 or Mut-Myc-Thr58, treated for indicated periods of time
Procedure: FIG. 7: Stabilization of Myc by GSK3-inhibitors requires retention of the Myc-Threonine 58 residue: B lymphoma cell lines with WT-Myc-Thr58 (left panel) or Mut-Myc-Thr58 (right panel) were treated with CHIR-99021 for indicated periods of time.
As discussed above, treatment of Ramos cells [mutant for p53 and wild type for Myc (intact Threonine-58)] with GSK3-inhibitors increases the apoptotic response to drugs used to treat B cell lymphomas and leukemias within the CHOP-chemotherapeutic regimen: vincristine and doxorubicin. In our model, GSK3 inhibitors prevent phosphorylation of Myc at its Thr-58 residue by GSK3, inhibiting Myc degradation and inducing a transient stabilization and increase in the amount of the Myc protein. It has previously been shown that Myc-Thr58 is a hot spot for mutations in Burkitt's Lymphoma (Smith-Sorensen et al, JBC 1996), and when Myc-Thr58 is altered, the effect of transient stabilization induced by GSK3-inhibitors is lost (FIG. 7). Thus, cooperation of GSK3-inhibitors and chemotherapeutic drugs require retention of the Myc-Threonine-58 residue.

Raji cells [1] = experiment: Caspase-3/7 Glo activity in Raji cells treated with TRAIL with or without CHIR-99021 (FIG. 9B); format: cell-based, human; conditions: increasing concentrations of TRAIL in presence or absence of CHIR-99021
Procedure: (§1) Raji cells were treated with indicated concentrations of TRAIL for 16 h in the presence or absence of CHIR-99021. (FIG. 9A) Immunoblotting with antibodies to detect cleavage of PARP and caspase-8, as well as Myc, beta-catenin and loading controls Tutbulin, Actin and GAPDH. (FIG. 9B) Caspase-3/7 activity were measured using the bioluminescent-based Caspase-3/7 Glo Kit (Promega). Fold increase in caspase activities relative to untreated cells, are shown for cells treated with TRAIL alone (light grey bars) or with TRAIL and CHIR-99021 (dark grey bars).
(§2) This finding is relevant since, as mentioned above, Threonine-58 is a hot spot for mutations in Burkitt's lymphoma (Smith-Sorensen et al, JBC 1996).

Ramos cells = experiment: Yo-Pro flow cytometry of Ramos cells, apoptotic response to TRAIL (FIG. 8); format: cell-based, human; conditions: Ramos cells pre-treated with CHIR99021 for 2 hours followed by 5 h of TRAIL
Procedure: Ramos cells where left untreated (top-left panel), treated with TRAIL for 5 h (top-right panel), treated with CHIR99021 alone (bottom-left panel) or pre-treated with CHIR99021 for 2 hours followed by 5 h of TRAIL (bottom-right panel). Percentage of death cells was measured by incorporation of the nuclear staining Yo-Pro. Percentages of living and apoptotic cells are shown in the M4 and M5 gates respectively. […] TRAIL engages the extrinsic apoptotic pathway, activating Caspase-8, and is currently in clinical trials for the treatment of different oncological malignancies (reviewed in Stuckey and Shah, Trends in Mol Med 2013).

Raji cells [2] = experiment: Immunoblotting of Raji cells treated with TRAIL with or without CHIR-99021 (FIG. 9A); format: cell-based, human
Procedure: as §1, §2

Compound: COc1cccc2c1C(=O)c1c(O)c3c(c(O)c1C2=O)C[C@@](O)(C(=O)CO)C[C@@H]3O[C@H]1C[C@H](N)[C@H](O)[C@H](C)O1 [doxorubicin]
- cell killing / apoptosis (Myc/p53ER™ cells; absence of active p53 (no tamoxifen)): cell killing was rather inefficient

Compound: CC/C(=C(\c1ccccc1)c1ccc(OCCN(C)C)cc1)c1ccccc1 [tamoxifen]
- apoptosis by activation of p53 (Myc/p53ER™ cells; tamoxifen added, without doxorubicin or modulation of Myc): sufficient to induce robust apoptosis

Compound: Cc1c[nH]c(-c2cnc(NCCNc3ccc(C#N)cn3)nc2-c2ccc(Cl)cc2Cl)n1 [CHIR-99021, 6-{2-[4-(2,4-dichlorophenyl)-5-(4-methyl-1H-imidazol-2-yl)-pyrimidin-2-ylamino]ethyl-amino}nicotinonitrile]
- stabilization of Myc (Myc): induces stabilization of Myc only when the Myc-Thr-58 residue is retained
- caspase 3 activity (Raji cells [1]): higher levels of caspase-3 activity
- apoptotic response to TRAIL (percentage of dead cells by Yo-Pro) (Ramos cells): increases the apoptotic response to TRAIL
- cleaved caspase 8 and cleaved PARP by immunoblotting (Raji cells [2]; Raji cells pre-treated with CHIR-99021 followed by TRAIL vs TRAIL only): increase in the amount of cleaved caspase 8 and cleaved PARP
- apoptotic response to TRAIL (Raji cells [2]; Raji cells, TRAIL for 16 h in presence or absence of CHIR-99021): increases the apoptotic response to TRAIL
- levels of beta-catenin (Raji cells [2]; Raji cells, immunoblotting): increased levels of beta-catenin
- levels of mutant Myc (Raji cells [2]; Raji cells, immunoblotting): remain constant
- cell death with TRAIL and CHIR-99021 (Raji cells [2]; Raji cells, no functional p53 and mutant Myc-thr58): killed Raji cells
